# Read-outs that look alike come from different tables or passages of the source.
# How the values were obtained:
# [1] = target: Brpt2.5 (Aap construct with two G5 domains and the C-terminal cap) (Staphylococcus epidermidis); experiment: sedimentation equilibrium AUC at 10 mM Zn; sequence mass monomer 35,971, dimer 71,942
# [2] = target: Brpt2.5 (Aap construct with two G5 domains and the C-terminal cap) (Staphylococcus epidermidis); experiment: sedimentation equilibrium AUC, monomer-dimer association at 5 mM Zn
# [3] = target: Brpt2.5 (Aap construct with two G5 domains and the C-terminal cap) (Staphylococcus epidermidis)
# [4] = target: Brpt2.5 (Aap construct with two G5 domains and the C-terminal cap) (Staphylococcus epidermidis); experiment: sedimentation equilibrium AUC, monomer-dimer association at 2 mM Zn
# [5] = target: Brpt2.5 (Aap construct with two G5 domains and the C-terminal cap) (Staphylococcus epidermidis); experiment: sedimentation equilibrium AUC at 0 mM Zn; sequence mass monomer 35,971, dimer 71,942
# [6] = system: Staphylococcus aureus Strain Rosenbach SA113; experiment: Biofilm formation assay in FBS pre-treated 96 well plates, crystal violet (Example 9); assay type: cell-based; details: SA113, 2% glucose, 36-40 hours
# Protocol: In addition, 96 well microtiter plates were pre-treated with fetal bovine serum (FBS) at 4° C. for at least 24 hours prior to use. The FBS was aspirated prior to addition of chelators and glucose for the assay. […] The 96 well plates were then incubated 36-40 hours statically at 37° C. Media was aspirated by pipet and wells were washed twice with filtered water. The plates were dried by inversion for 1 hour, and stained with 0.1% crystal violet for 15 minutes. Crystal violet was then aspirated by pipet and washed once with filtered water. The plates were then read on a spectrophotometer at a wavelength of 570 nm.
# [7] = system: S. epidermidis RP62A biofilms; experiment: RP62A biofilms on polystyrene visualized with crystal violet (FIG. 3A, 3C, 4, 7, 8); assay type: cell-based; details: RP62A on polystyrene, FIG. 3A
# Protocol: (§1) FIG. 3. (A) S. epidermidis RP62A biofilms formed on polystyrene and were visualized with crystal violet; addition of the Zn^2+ chelator DTPA (≧30 μM) inhibits biofilm formation. Representative wells have been scanned (bottom). Untreated (“RP62A”) and vehicle (“HCl”) controls are shown. Error bars show standard deviation (* indicates p<0.05 relative to untreated control; n=3); (B) Methicillin-resistant S. aureus USA300 biofilms form on fibronectin-coated plates but are inhibited by addition of DTPA (≧30 μM). (*: p<0.05; n=4); (C) Addition of 5-20 μM ZnCl2 at a minimal inhibitory dose of DTPA (30 μM) rescues biofilm formation by RP62A.
# FIG. 4. […] (*: p<0.05 relative to RP62A control at the relevant Zn^2+ concentration; n=3); (B) Dose response of biofilm inhibition by MBP-Brpt1.5 at a fixed 1 mM ZnCl2 concentration. (*: p<0.0005; n=3); (C) The “zinc zipper” model for intercellular adhesion in staphylococcal biofilms mediated by zinc-dependent self-association of G5 domains.
# FIG. 7. […] All data at 30 μM DTPA show statistically significant decreases compared to no-treatment control (RP62A). Statistically significant increases over the 0 μM MnCl2/30 μM DTPA datapoint are marked with an asterisk (*).
# To test the physiological role of Zn^2+-mediated G5 adhesion in the formation of staphylococcal biofilms, both S. epidermidis and S. aureus biofilms were grown in culture in the presence or absence of the Zn^2+ chelator diethylenetriaminepentaacetic acid (DTPA). DTPA was non-toxic at all concentrations tested (up to 100 μM). S. epidermidis strain RP62A formed robust biofilms when cultured in media alone, but biofilm growth was inhibited by non-toxic doses of DTPA (≧30 μM) (FIG. 3A).
# To determine whether Zn^2+-dependent biofilm formation is specifically dependent upon G5 domain-mediated self-assembly, soluble Brpt1.5 was added to S. epidermidis RP62A biofilms as a maltose-binding protein (MBP) fusion. Because of the higher Zn^2+ concentrations required to induce dimerization in the short construct compared to full-length Aap, inhibition by MBP-Brpt1.5 was tested at Zn^2+ concentrations ranging up to 1 mM. RP62A biofilms were inhibited by soluble MBP-Brpt1.5 in the presence of 0.75 and 1 mM ZnCl2, whereas addition of MBP alone had no effect (FIG. 4A). […] Thus, addition of even a single intact zinc adhesion module in a soluble form is capable of inhibiting biofilm formation, highlighting the role of this domain as a Zn^2+-dependent adhesion module in staphylococcal biofilms.
# [8] = Mn; cited from earlier work
# [9] = system: S. epidermidis RP62A biofilms; experiment: RP62A biofilms on polystyrene visualized with crystal violet (FIG. 3A, 3C, 4, 7, 8); assay type: cell-based
# [10] = system: Methicillin-resistant S. aureus USA300 biofilms; experiment: USA300 biofilms on fibronectin-coated plates (FIG. 3B, 3D); assay type: cell-based; details: USA300 on fibronectin-coated plates, FIG. 3B
# Protocol: as §1
# S. aureus strain USA300, which is responsible for recent epidemic outbreaks of community-acquired methicillin-resistant S. aureus (MRSA) infections, formed biofilms on fibronectin-coated plates. As observed for S. epidermidis, the MRSA biofilms were inhibited by Zn^2+ chelation (≧30 μM DTPA) (FIG. 3B). […] Like S. epidermidis, the MRSA strain USA300 could be rescued by the addition of 15-20 μM ZnCl2 (FIG. 3D). Importantly, at the minimal inhibitory concentration of DTPA (30 μM), biofilm growth by both staphylococcal species could be rescued by the addition of 5-20 μM ZnCl2; these Zn^2+ concentrations are similar to the physiological range in human plasma (12-16 μM resting concentration).
# [11] = system: Methicillin-Resistant Staphylococcus epidermidis Strain RP62a; experiment: Biofilm formation assay in 96 well plates, crystal violet, absorbance at 570 nm (Example 8); assay type: cell-based; details: 18-24 hours, 37° C.
# Protocol: S. epidermidis strain RP62a (ATCC 35984) was obtained as a glycerol stock from ATCC. 3 ml overnight cultures were grown in tryptic soy broth (TSB, BD Biomedical), shaking at 37° C., and cultures were diluted 1:200 in TSB for use in the biofilm assay.
# Each chelator (prepared in Examples 1-6) was added directly to a 96 well microtiter plate in a series of dilutions. 20 μl of each stock solution (200, 400, 800, 1600, 3200, 6400, 13000, or 26000 μM chelator) was added to each well. 200 μl of the 1:200 dilution of RP62a bacterial culture (as previously specified) was added to each well. Controls with bacterial culture media only and bacterial culture media plus vehicle controls only (i.e., final concentrations 10 mM HCl, 10% ethanol, or 10 mM NaOH) were added to wells alone without chelator. The 96 well plates were then incubated 18-24 hours statically at 37° C. Media was aspirated by pipet and wells were washed twice with filtered water. The plates were dried by inversion for 1 hour, and stained with 0.1% crystal violet for 15 minutes. Crystal violet was then aspirated by pipet and washed once with filtered water. The plates were then read on a spectrophotometer at a wavelength of 570 nm. An absorbance greater than 0.1 indicates biofilm formation.
# [12] = Sr; cited from earlier work
# [13] = Ca; cited from earlier work
# [14] = Mg; cited from earlier work
# [15] = Zn; cited from earlier work
# [16] = system: Methicillin-Resistant Staphylococcus aureus Strain USA300; experiment: Biofilm formation assay in fibronectin pre-treated 96 well plates, crystal violet (Example 11); assay type: cell-based; details: USA300, 2% glucose, 36-40 hours
# Protocol: S. aureus strain USA300 was obtained from Daniel Hassett (University of Cincinnati) as a glycerol stock. 3 ml overnight cultures were grown in blood-heart infusion broth (BHI) shaking at 37° C., where cultures were diluted 1:25 for use in the biofilm assay. 2% glucose (20 ul from a 20% glucose stock) was added to each well prior to the addition of bacterial culture to promote biofilm formation. In addition, 96 well microtiter plates were pre-treated with human fibronectin (BD biomedical purchased from Fisher scientific). The fibronectin was aspirated prior to addition of chelators and glucose for the assay. Each chelator (prepared in Examples 1-6) was added directly to a 96 well microtiter plate in a series of dilutions. 20 μl of each stock solution (200, 400, 800, 1600, 3200, 6400, 13000, or 26000 μM chelator) was added to each well. 200 μl of the 1:25 dilution of USA300 bacterial culture dilution (as previously specified) were added to each well. Controls with bacterial culture media only and bacterial culture media plus vehicle controls only (final concentrations 10 mM HCl, 10% ethanol, and 10 mM NaOH) were added to wells alone without chelator. The 96 well plates were then incubated 36-40 hours statically at 37° C. Media was aspirated by pipet and wells were washed twice with filtered water. The plates were dried by inversion for 1 hour, and stained with 0.1% crystal violet for 15 minutes. Crystal violet was then aspirated by pipet and washed once with filtered water. The plates were then read on a spectrophotometer at a wavelength of 570 nm. An absorbance greater than 0.1 indicates biofilm formation.
# [17] = target: the molecule itself; experiment: sedimentation velocity analytical ultracentrifugation; self-association with and without 10 mM ZnCl2, normalized c(s) [panel E]
# [18] = target: the molecule itself; experiment: sedimentation equilibrium AUC, monomer-dimer association at 2 mM Zn; 2 mM Zn (ZnCl2), sedimentation equilibrium
# [19] = target: the molecule itself; experiment: sedimentation equilibrium AUC, monomer-dimer association at 10 mM Zn; 10 mM Zn (ZnCl2), sedimentation equilibrium
# [20] = target: the molecule itself; experiment: sedimentation equilibrium AUC, monomer-dimer association at 5 mM Zn; 5 mM Zn (ZnCl2), sedimentation equilibrium
# [21] = target: the molecule itself
# [22] = system: G5 domains of Aap (Zn^2+-mediated monomer-dimer association); details: 10 mM ZnCl2, pH 7.4 to 6.0, FIG. 6B
# Protocol: The dashed line label (- - -) represents cation-free Brpt1.5; (B) Far-UV CD spectrum of Brpt1.5 in the presence (squares) and absence (triangles) of Zn; (C) Sedimentation equilibrium analysis of Zn^2+-mediated dimerization of Brpt1.5 (triangles) and Brpt2.5 (squares). […] Error bars show 95% confidence intervals; (D) Linked equilibrium plot of Zn binding by Brpt1.5.
# (A) Sedimentation velocity analysis of the Zn^2+-dependent dimerization of Brpt1.5 as a function of pH in 20 mM Tris, 20 mM MES, 50 mM NaCl, and 10 mM ZnCl2. […] Dashed lines show data collected in the absence of Zn^2+, and solid lines show data collected at 10 mM ZnCl2.
# To analyze the linked equilibria between dimerization and Zn^2+ binding, the logarithm of the dimerization association constant was plotted against the logarithm of the free Zn^2+ concentration to reveal the net number of Zn^2+ ions participating in the dimerization interface.
molecule,measurement,setting,value
Brpt2.5 (Aap construct with two G5 domains and the C-terminal cap),Mexperimental (molecular weight),[1],78500
same,Kd,[2],0.072 µM
same,EC50 of [Zn2+] for dimerization,[3],3700 µM
same,Kd,[4],25.5 µM
same,Mexperimental (molecular weight),[5],37000
"O=C(O)CN(CCN(CC(=O)O)CC(=O)O)CCN(CC(=O)O)CC(=O)O [DTPA, diethylenetriaminepentaacetic acid]",chelator concentration at which biofilms were inhibited (absorbance of 0.1 or less),[6],20 µM
same,concentration that inhibits biofilm formation,[7],≥ 30 µM
same,affinity for DTPA (log K),[8],15.5
same,disruption of pre-formed biofilms,[9],did not disrupt
same,concentration that inhibits biofilm formation,[10],≥ 30 µM
same,chelator concentration at which biofilms were diminished but not cleared,[11],20 µM
same,chelator concentration at which biofilms were inhibited (absorbance of 0.1 or less),[11],40 µM
same,affinity for DTPA (log K),[12],9.68
same,affinity for DTPA (log K),[13],10.74
same,affinity for DTPA (log K),[14],9.3
same,affinity for DTPA (log K),[15],18.75
same,chelator concentration at which biofilms were diminished but not cleared,[16],20 µM
"H75A/H85A Brpt1.5 mutant (other, also called histidine-null mutant) VDGDSITSTEEIPFDKKREFDPNLAPGTEKVVQKGEPGTKTITTPTTKNPLTGEKVGEGEPTEKITKQPVDEIVAYGGEQIPQGAKDEFDPNAPVDSKTEVPGKPGVKNPDTGEVVTPPVDDVTKYGPVDGDSITSTEEIPFDKKREFDPNLAPGTEKVVQKGEPGTKTITTPTTKNPLTGEKVGEGKSTEKVTKQPVDEIVEYGPTK",binding result,[17],binds
"Brpt1.5 (C-terminal G5 domain of the B-repeat region of Aap followed by the C-terminal 79 amino acid half-repeat) (other, also called wild-type Brpt1.5; zinc adhesion module) VDGDSITSTEEIPFDKKREFDPNLAPGTEKVVQKGEPGTKTITTPTTKNPLTGEKVGEGEPTEKITKQPVDEIVHYGGEQIPQGHKDEFDPNAPVDSKTEVPGKPGVKNPDTGEVVTPPVDDVTKYGPVDGDSITSTEEIPFDKKREFDPNLAPGTEKVVQKGEPGTKTITTPTTKNPLTGEKVGEGKSTEKVTKQPVDEIVEYGPTK",Kd,[18],113 µM
same,Kd,[19],0.353 µM
same,Kd,[20],5.06 µM
same,EC50 of [Zn2+] for dimerization,[21],5400 µM
Brpt1.5: single G5 domain of Aap B-repeat region followed by the C-terminal 79 amino acid half-repeat (protein) VDGDSITSTEEIPFDKKREFDPNLAPGTEKVVQKGEPGTKTITTPTTKNPLTGEKVGEGEPTEKITKQPVDEIVHYGGEQIPQGHKDEFDPNAPVDSKTEVPGKPGVKNPDTGEVVTPPVDDVTKYGPVDGDSITSTEEIPFDKKREFDPNLAPGTEKVVQKGEPGTKTITTPTTKNPLTGEKVGEGKSTEKVTKQPVDEIVEYGPTK,apparent pKa of dimer to monomer transition,[22],6.7

# Reference: patent US20110189260A1, “USE OF ZINC CHELATORS TO INHIBIT BIOFILM FORMATION” (UNIVERSITY OF CINCINNATI, priority 2008, published 2011)
